Data taken from US20130237487A1, “CRYSTALLINE AND NON-CRYSTALLINE FORMS OF SGLT2 INHIBITORS” (SCINOPHARM TAIWAN, LTD., priority 2011, published 2013).
“Also recorded” adds a separate entry of the source.

Legend:
[1] = Dynamic vapor sorption (DVS) analysis; settings: for sorption/desorption behavior between cycles: DVS isotherm plots, two sorption/desorption cycles; for hygroscopicity (moisture sorption) / physical stability of the solid form as humidity is changed: DVS; for hygroscopicity (moisture sorption): relative humidity increased from 0% to 90%; for physical stability of the solid form as humidity is changed: up to 90% RH
[2] = Hydration-state stability of Form CS3 under different humidity (DSC/TGA, Karl Fischer titration); format: physicochemical
From the text: Form CS3 has been further characterized using DSC/TGA and Karl Fischer titration. […] Dehydration, which is reversible, only occurs when the sample is exposed to a low humidity environment (e.g., less than about 10% RH). […] The DSC/TGA traces of crystalline complex Form CS3 of canagliflozin are in accordance with FIG. 17. The aforementioned physical stability characteristic of this embodiment makes the crystalline complex Form CS3 of canagliflozin a preferred solid form of canagliflozin of this invention.
(FIG. 20) is essentially the same as the XRPD pattern acquired at 25° C. (FIG. 15). Thus, from the XRPD patterns acquired at 25° C. and 100° C., it can be reasonably concluded that although Form CS3 is a monohydrate under ambient conditions (such as in an analytical chemistry laboratory), it can also exist as an anhydrate at low humidity, such as less than about 10% RH, and at temperatures higher than ambient temperature.

[3] = laboratory environmental conditions

Cc1ccc([C@@H]2O[C@H](CO)[C@@H](O)[C@H](O)[C@H]2O)cc1Cc1ccc(-c2ccc(F)cc2)s1.O=C(O)[C@@H]1CCCN1 [Form CS1]
sorption/desorption behavior between cycles [1]: completely consistent between cycles | hygroscopicity (moisture sorption) [1]: not hygroscopic | physical stability of the solid form as humidity is changed [1]: stable in the presence or absence of moisture

Cc1ccc([C@@H]2O[C@H](CO)[C@@H](O)[C@H](O)[C@H]2O)cc1Cc1ccc(-c2ccc(F)cc2)s1 [Form CS3]
physical stability (hydration state) ([2]; highly humid conditions): remains as a monohydrate | hygroscopicity [2, 3]: non-hygroscopic | physical stability (hydration state) [2, 3]: stable as a monohydrate | relative humidity at which (reversible) dehydration occurs ([2]; low humidity environment): less than 10 % RH

Cc1ccc([C@@H]2O[C@H](CO)[C@@H](O)[C@H](O)[C@H]2O)cc1Cc1ccc(-c2ccc(F)cc2)s1 [amorphous form of canagliflozin, (2S,3R,4R,5S,6R)-2-{3-[5-[4-fluoro-phenyl)-thiophen-2-ylmethyl]-4-methyl-phenyl}-6-hydroxymethyl-tetrahydro-pyran-3,4,5-triol]
sorption/desorption behavior between cycles [1]: second sorption/desorption cycle was different from the first cycle; also recorded: inconsistent between the two cycles | hygroscopicity (moisture sorption) [1]: significantly hygroscopic | physical stability of the solid form as humidity is changed [1]: conversion or partial conversion from the amorphous state to a crystalline state; also recorded: undergoes physical change (from amorphous to crystalline)
